US4100346A, “Certain 7(o-amino-methyl- or methylaminomethylphenyl- or cyclohexadienyl- or thienylacetamide)-3[1-carboxymethyl-(or ethyl- or propyl-)-tetrazol-5-ylthiomethyl]-3-cephem-4-carboxylic acids” (Bristol-Myers Company, priority 1976, dated 1978)
Values after ≈ are worked out from the molar mass of the structure shown. Where two headings read alike, the source gives them in different places.

How the values were obtained:
[1] = tested on: Enterobacter aerogenes; assay: Minimum growth inhibitory and bactericidal concentrations for Enterobacteriaceae; type: cell-based; details: Klebsiella aerogenes, inoculum 10^4 cells; for MBC: read-out: MBC, minimum bactericidal concentration; for MIC: read-out: MIC, Minimum growth inhibitory concentration
Description: (§1) Miscellaneous. Methods for determining bactericidal activity and susceptibility to cell-free β-lactamase were those previously used; Leitner et al., BL-S640, A Cephalosporin With a Broad Spectrum of Antibacterial Activity: Properties in vitro, Antimicrob. Agents Chemother. 7:298-305 (1975).
(§2) *MIC, Minimum growth inhibitory concentration; MBC, minimum bactericidal
(§3) concentration; expressed as micrograms per milliliter. The inoculum was […]

[2] = tested on: Proteus mirabilis; assay: as above; type: cell-based; details: for MBC: read-out: MBC, minimum bactericidal concentration; for MIC: read-out: MIC, Minimum growth inhibitory concentration
Description: as §1, §2, §3

[3] = tested on: Proteus rettgeri; assay: as above; type: cell-based; details: Providencia rettgeri, inoculum 10^4 cells; for MBC: read-out: MBC, minimum bactericidal concentration; for MIC: read-out: MIC, Minimum growth inhibitory concentration
Description: as §1, §2, §3

[4] = tested on: Proteus vulgaris; assay: as above; type: cell-based; details: Proteus vulgaris, inoculum 10^4 cells; for MBC: read-out: MBC, minimum bactericidal concentration; for MIC: read-out: MIC, Minimum growth inhibitory concentration
Description: as §1, §2, §3

[5] = tested on: Staphylococcus aureus; assay: Intramuscular treatment of systemically infected mice; type: in vivo; details: im, read-out: PD50 /treatment
Description: (§4) Treatment of Systemically Infected Mice. The procedures were identical with those published previously [Leitner et al., BL-S640, a Cephalosporin With a Broad Spectrum of Antibacterial Activity: Bioavailability and Therapeutic Properties in Rodents, Antimicrob. Agents Chemother. 7:306-310, (1975)], except that:
(§5) (a) the hog gastric mucin used in infections with Staphylococcus aureus No. 2 was purchased from American Laboratories, Inc., Omaha, Neb. (lot No. 154163) and b) that the medium used to suspend all other organisms contained 3% (rather than 4%) hog gastric mucin (type 1701W, Wilson Laboratories, Inc., Park Forest South, Ill.).
(§6) *Animals infected with penicillinase-producing staphyloccal strains (No.
(§7) and 3) were treated 0 and 2 hours after infection; the others were treate
(§8) 1 and 3.5 hours after infection.

[6] = tested on: Streptococcus pneumoniae; assay: as above; type: in vivo; details: im, 3.5 h, read-out: PD50 /treatment
Description: as §4, §5, §6, §7, §8

[7] = tested on: Streptococcus pyogenes; assay: as above; type: in vivo; details: im, 3.5 h, read-out: PD50 /treatment
Description: as §4, §5, §6, §7, §8

[8] = tested on: Pseudomonas aeruginosa; assay: Growth inhibitory activity, antibiotic dilution technique; details: read-out: Minimum inhibitory concentration
[9] = tested on: Listeria monocytogenes; assay: as above; details: read-out: Minimum inhibitory concentration
[10] = tested on: Providencia stuartii; assay: as above
[11] = tested on: Neisseria gonorrhoeae; assay: as above
[12] = tested on: Proteus vulgaris; assay: Effect of inoculum size on susceptibility of Enterobacteriaceae
[13] = tested on: Proteus rettgeri; assay: as above; details: Providencia rettgeri
[14] = molecular target: β-lactamase Class I Type a, Enterobacter cloacae 214 (Enterobacter cloacae, UniProt P05364); type: biochemical
β-lactamase Class I Type a, Enterobacter cloacae 214, sequence (P05364 21-381): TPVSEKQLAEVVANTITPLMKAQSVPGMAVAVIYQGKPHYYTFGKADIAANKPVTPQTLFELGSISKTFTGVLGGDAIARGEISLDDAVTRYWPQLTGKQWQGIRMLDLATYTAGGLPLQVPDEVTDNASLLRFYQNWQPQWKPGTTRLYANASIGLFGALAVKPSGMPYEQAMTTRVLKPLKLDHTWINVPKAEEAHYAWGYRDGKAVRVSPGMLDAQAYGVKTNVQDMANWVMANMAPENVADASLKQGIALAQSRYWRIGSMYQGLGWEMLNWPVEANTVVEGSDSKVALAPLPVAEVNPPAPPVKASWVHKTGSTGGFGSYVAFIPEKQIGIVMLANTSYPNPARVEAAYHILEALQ
Protocol: (§9) Miscellaneous. Methods for determining bactericidal activity and susceptibility to cell-free β-lactamase were those previously used; Leitner et al., BL-S640, A Cephalosporin With a Broad Spectrum of Antibacterial Activity: Properties in vitro, Antimicrob. Agents Chemother.
(§10) Susceptibility to β-lactamase. Susceptibility to enzymic hydrolysis was assessed by determining relative rates of hydrolysis by cell-free preparations of various β-lactamases (Table 6).

[15] = molecular target: β-lactamase Class I Type b, Escherichia coli 719 (Escherichia coli, UniProt P00811); type: biochemical
β-lactamase Class I Type b, Escherichia coli 719, sequence (P00811 20-377): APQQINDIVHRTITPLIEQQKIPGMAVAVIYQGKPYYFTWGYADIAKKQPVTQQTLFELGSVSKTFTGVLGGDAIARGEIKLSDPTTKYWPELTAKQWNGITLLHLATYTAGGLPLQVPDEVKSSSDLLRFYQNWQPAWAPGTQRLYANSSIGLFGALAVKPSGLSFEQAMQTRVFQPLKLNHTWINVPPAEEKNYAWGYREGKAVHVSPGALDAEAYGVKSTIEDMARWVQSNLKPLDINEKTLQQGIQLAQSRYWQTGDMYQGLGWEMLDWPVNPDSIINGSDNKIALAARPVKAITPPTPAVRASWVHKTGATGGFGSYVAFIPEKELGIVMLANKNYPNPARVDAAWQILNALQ
Protocol: as §9, §10

[16] = tested on: β-lactamase Class II Type a, Proteus mirabilis 1266; type: biochemical
Protocol: as §9, §10

[17] = molecular target: T1, β-lactamase Class III Type a, Escherichia coli TEM (Escherichia coli, UniProt P62593); type: biochemical
T1 construct: cell-free preparations of various β-lactamases; endogenous in cells; host or cells: Escherichia coli strain TEM
T1 sequence (P62593 24-286 limits assumed): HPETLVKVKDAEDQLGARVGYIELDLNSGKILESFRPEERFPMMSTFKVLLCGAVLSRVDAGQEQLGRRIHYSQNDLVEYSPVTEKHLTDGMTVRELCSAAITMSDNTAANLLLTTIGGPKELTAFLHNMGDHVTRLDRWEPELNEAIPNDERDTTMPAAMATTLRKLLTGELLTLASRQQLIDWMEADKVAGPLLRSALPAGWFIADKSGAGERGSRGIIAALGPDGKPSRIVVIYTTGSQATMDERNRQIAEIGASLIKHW
Protocol: as §9, §10

[18] = tested on: β-lactamase Class IV Type a, Klebsiella pneumoniae 53; type: biochemical
Protocol: as §9, §10

[19] = tested on: β-lactamase Class IV Type b, Klebsiella pneumoniae 1169; type: biochemical
Protocol: as §9, §10

[20] = in vitro; type: in vitro ADME, human; details: human, serum; read-out: protein bound (converted)
[21] = Enterobacter aerogenes strain 1
[22] = Enterobacter aerogenes strain 2
[23] = Enterobacter aerogenes strain 3
[24] = Proteus mirabilis strain 1, inoculum 10^4 cells
[25] = Proteus mirabilis strain 2, inoculum 10^4 cells
[26] = Proteus mirabilis strain 3, inoculum 10^4 cells
[27] = Proteus mirabilis strain 4, inoculum 10^4 cells
[28] = Proteus mirabilis strain 5, inoculum 10^4 cells
[29] = 3.5 h, Staphylococcus aureus strain 1, challenge 2 × 10^5 - 3 × 10^5, treated 1 and 3.5 hours after infection
[30] = Staphylococcus aureus strain 2 (penicillinase-producing), challenge 1 × 10^9, treated 0 and 2 hours after infection
[31] = Staphylococcus aureus strain 3 (penicillinase-producing), challenge 5 × 10^8 - 7 × 10^9, treated 0 and 2 hours after infection
[32] = Streptococcus pneumoniae strain 1, challenge 2 × 10^3 - 9 × 10^3, treated 1 and 3.5 hours after infection
[33] = Streptococcus pneumoniae strain 2, challenge 1 × 10^4 - 3 × 10^4, treated 1 and 3.5 hours after infection
[34] = Streptococcus pyogenes strain 1, challenge 2 × 10^3 -6 × 10^3, treated 1 and 3.5 hours after infection
[35] = Streptococcus pyogenes strain 2, challenge 1 × 10^4 - 5 × 10^4, treated 1 and 3.5 hours after infection
[36] = read-out: Minimum Inhibitory Concentration, Proteus vulgaris strain 1, A, Inoculum of 10^2 organisms
[37] = read-out: Minimum Inhibitory Concentration, Proteus vulgaris strain 1, B, Inoculum of 10^6 organisms
[38] = read-out: Minimum Inhibitory Concentration, Proteus vulgaris strain 2, A, Inoculum of 10^2 organisms
[39] = read-out: Minimum Inhibitory Concentration, Proteus vulgaris strain 2, B, Inoculum of 10^6 organisms
[40] = read-out: Minimum Inhibitory Concentration, Proteus vulgaris strain 4, A, Inoculum of 10^2 organisms
[41] = read-out: Minimum Inhibitory Concentration, Proteus vulgaris strain 4, B, Inoculum of 10^6 organisms
[42] = read-out: Minimum Inhibitory Concentration, Proteus rettgeri strain 1, A, Inoculum of 10^2 organisms
[43] = read-out: Minimum Inhibitory Concentration, Proteus rettgeri strain 1, B, Inoculum of 10^6 organisms
[44] = read-out: Minimum Inhibitory Concentration, Proteus rettgeri strain 2, A, Inoculum of 10^2 organisms
[45] = read-out: Minimum Inhibitory Concentration, Proteus rettgeri strain 2, B, Inoculum of 10^6 organisms
[46] = read-out: Minimum Inhibitory Concentration, Proteus rettgeri strain 3, A, Inoculum of 10^2 organisms
[47] = read-out: Minimum Inhibitory Concentration, Proteus rettgeri strain 3, B, Inoculum of 10^6 organisms

Cc1nnc(SCC2=C(C(=O)O)N3C(=O)[C@@H](NC(=O)Cn4cnnn4)[C@H]3SC2)s1 [Cefazolin]
MBC [1, 21]: 125 µg/mL (≈ 275 µM) | MIC [1, 21]: 32 µg/mL (≈ 70.4 µM) | MBC [1, 22]: > 250 µg/mL | MIC [1, 22]: 63 µg/mL (≈ 139 µM) | MBC [1, 23]: 250 µg/mL (≈ 550 µM) | MIC [1, 23]: 63 µg/mL (≈ 139 µM) | MBC [2, 24]: 8 µg/mL (≈ 17.6 µM) | MIC [2, 24]: 4 µg/mL (≈ 8.8 µM) | MBC [2, 25]: 16 µg/mL (≈ 35.2 µM) | MIC [2, 25]: 8 µg/mL (≈ 17.6 µM) | MBC [2, 26]: 8 µg/mL (≈ 17.6 µM) | MIC [2, 26]: 8 µg/mL (≈ 17.6 µM) | MBC [2, 27]: 8 µg/mL (≈ 17.6 µM) | MIC [2, 27]: 4 µg/mL (≈ 8.8 µM) | MBC [2, 28]: 8 µg/mL (≈ 17.6 µM) | MIC [2, 28]: 8 µg/mL (≈ 17.6 µM) | MBC ([3]; Proteus rettgeri strain 2): 0.5 µg/mL (≈ 1.1 µM) | MIC ([3]; Proteus rettgeri strain 2): 0.25 µg/mL (≈ 0.55 µM) | MBC ([3]; Proteus rettgeri strain 3): > 250 µg/mL | MIC ([3]; Proteus rettgeri strain 3): 4 µg/mL (≈ 8.8 µM) | MBC ([4]; Proteus vulgaris strain 1): 4 µg/mL (≈ 8.8 µM) | MIC ([4]; Proteus vulgaris strain 1): 4 µg/mL (≈ 8.8 µM) | MBC ([4]; Proteus vulgaris strain 2): 16 µg/mL (≈ 35.2 µM) | MIC ([4]; Proteus vulgaris strain 2): 8 µg/mL (≈ 17.6 µM) | MBC ([4]; Proteus vulgaris strain 4): 16 µg/mL (≈ 35.2 µM) | MIC ([4]; Proteus vulgaris strain 4): 8 µg/mL (≈ 17.6 µM) | ED50 [5, 29]: 0.09 mg/kg | ED50 [5, 30]: 5 mg/kg | ED50 [5, 31]: 23 mg/kg | ED50 [6, 32]: 0.39 mg/kg | ED50 [6, 33]: 0.57 mg/kg | ED50 [7, 34]: 0.57 mg/kg | ED50 [7, 35]: 0.27 mg/kg | MIC [8]: > 125 µg/mL | MIC [9]: 1.2 µg/mL (≈ 2.64 µM) | inhibition at 16 µg/mL ([10]; Providencia stuartii, read-out: percent of strains inhibited): 23% | susceptibility of Neisseria gonorrhoeae [11]: equally susceptible | MIC [12, 36]: 4 µg/mL (≈ 8.8 µM) | MIC [12, 37]: 250 µg/mL (≈ 550 µM) | MIC [12, 38]: 8 µg/mL (≈ 17.6 µM) | MIC [12, 39]: 32 µg/mL (≈ 70.4 µM) | MIC [12, 40]: 8 µg/mL (≈ 17.6 µM) | MIC [12, 41]: 32 µg/mL (≈ 70.4 µM) | MIC [13, 42]: 0.5 µg/mL (≈ 1.1 µM) | MIC [13, 43]: > 250 µg/mL | MIC [13, 44]: 0.25 µg/mL (≈ 0.55 µM) | MIC [13, 45]: > 250 µg/mL | MIC [13, 46]: 2 µg/mL (≈ 4.4 µM) | MIC [13, 47]: > 250 µg/mL

O=C(Cc1cccs1)N[C@@H]1C(=O)N2C(C(=O)[O-])=C(C[n+]3ccccc3)CS[C@H]12 [Cephaloridine]
MBC [1, 21]: > 250 µg/mL | MIC [1, 21]: > 250 µg/mL | MBC [1, 22]: > 250 µg/mL | MIC [1, 22]: 250 µg/mL (≈ 602 µM) | MBC [1, 23]: 250 µg/mL (≈ 602 µM) | MIC [1, 23]: 250 µg/mL (≈ 602 µM) | MBC [2, 24]: 16 µg/mL (≈ 38.5 µM) | MIC [2, 24]: 8 µg/mL (≈ 19.3 µM) | MBC [2, 25]: 8 µg/mL (≈ 19.3 µM) | MIC [2, 25]: 8 µg/mL (≈ 19.3 µM) | MBC [2, 26]: 8 µg/mL (≈ 19.3 µM) | MIC [2, 26]: 8 µg/mL (≈ 19.3 µM) | MBC [2, 27]: 8 µg/mL (≈ 19.3 µM) | MIC [2, 27]: 8 µg/mL (≈ 19.3 µM) | MBC [2, 28]: 8 µg/mL (≈ 19.3 µM) | MIC [2, 28]: 4 µg/mL (≈ 9.63 µM) | MBC ([3]; Proteus rettgeri strain 2): 0.5 µg/mL (≈ 1.2 µM) | MIC ([3]; Proteus rettgeri strain 2): 0.5 µg/mL (≈ 1.2 µM) | MBC ([3]; Proteus rettgeri strain 3): > 250 µg/mL | MIC ([3]; Proteus rettgeri strain 3): 32 µg/mL (≈ 77 µM) | MBC ([4]; Proteus vulgaris strain 1): 8 µg/mL (≈ 19.3 µM) | MIC ([4]; Proteus vulgaris strain 1): 8 µg/mL (≈ 19.3 µM) | MBC ([4]; Proteus vulgaris strain 2): 16 µg/mL (≈ 38.5 µM) | MIC ([4]; Proteus vulgaris strain 2): 8 µg/mL (≈ 19.3 µM) | MBC ([4]; Proteus vulgaris strain 4): 16 µg/mL (≈ 38.5 µM) | MIC ([4]; Proteus vulgaris strain 4): 8 µg/mL (≈ 19.3 µM) | Relative Rate of Hydrolysis (benzylpenicillin = 100) [14]: 7900 | Relative Rate of Hydrolysis (benzylpenicillin = 100) [15]: 370 | Relative Rate of Hydrolysis (benzylpenicillin = 100) [16]: 2 | Relative Rate of Hydrolysis (benzylpenicillin = 100) [17]: 93 | Relative Rate of Hydrolysis (benzylpenicillin = 100) [18]: 100 | Relative Rate of Hydrolysis (benzylpenicillin = 100) [19]: 50 | ED50 [5, 29]: 0.01 mg/kg | ED50 [5, 30]: 3.2 mg/kg | ED50 [5, 31]: 3.3 mg/kg | ED50 [6, 32]: 0.1 mg/kg | ED50 [6, 33]: 0.26 mg/kg | ED50 [7, 34]: 0.06 mg/kg | ED50 [7, 35]: 0.02 mg/kg | fraction unbound [20]: 0.7 | MIC [8]: > 125 µg/mL | MIC [9]: 0.91 µg/mL (≈ 2.19 µM) | percent of strains inhibited [10]: negligible | MIC [12, 36]: 4 µg/mL (≈ 9.63 µM) | MIC [12, 37]: 16 µg/mL (≈ 38.5 µM) | MIC [12, 38]: 8 µg/mL (≈ 19.3 µM) | MIC [12, 39]: 250 µg/mL (≈ 602 µM) | MIC [12, 40]: 8 µg/mL (≈ 19.3 µM) | MIC [12, 41]: 16 µg/mL (≈ 38.5 µM) | MIC [13, 42]: 4 µg/mL (≈ 9.63 µM) | MIC [13, 43]: 250 µg/mL (≈ 602 µM) | MIC [13, 44]: 0.25 µg/mL (≈ 0.602 µM) | MIC [13, 45]: > 250 µg/mL | MIC [13, 46]: 16 µg/mL (≈ 38.5 µM) | MIC [13, 47]: > 250 µg/mL
